Tested on: NCI-H719 tumor spheroids, viability
Experiment: Anticancer human tumor NCI-H719 cell line growth inhibition;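 further: spheroids exposed to compounds for seven days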;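 on viability, T/C: percent viability relative to DMSO vehicle control as 100%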
Details: spheroids with HUVEC and MSC; for IC50: curve of first compound; for viability, T/C: stronger effect = lower value
Outline: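 Single agents and combinations were tested on spheroids built from tumor cells plus HUVEC and hMSC, at half-log dilutions starting at or near clinical Cmax, else 10 microM; final DMSO 0.25% (v/v).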

[1] = second compound 30 pM, first compound 0.0316 µM
[2] = second compound 30 pM, first compound 0.1 µM
[3] = second compound 30 pM, first compound 0.316 µM
[4] = second compound 30 pM, first compound 1 µM
[5] = second compound 30 pM, first compound 3.16 µM
[6] = second compound 30 pM, first compound 10 µM
[7] = second compound 94.9 pM, first compound 0.0316 µM
[8] = second compound 94.9 pM, first compound 0.1 µM
[9] = second compound 94.9 pM, first compound 0.316 µM
[10] = second compound 94.9 pM, first compound 1 µM
[11] = second compound 94.9 pM, first compound 3.16 µM
[12] = second compound 94.9 pM, first compound 10 µM
[13] = second compound 0.0003 µM, first compound 0.0316 µM
[14] = second compound 0.0003 µM, first compound 0.1 µM
[15] = second compound 0.0003 µM, first compound 0.316 µM
[16] = second compound 0.0003 µM, first compound 1 µM
[17] = second compound 0.0003 µM, first compound 3.16 µM
[18] = second compound 0.0003 µM, first compound 10 µM
[19] = second compound 0.000949 µM, first compound 0.0316 µM
[20] = second compound 0.000949 µM, first compound 0.1 µM
[21] = second compound 0.000949 µM, first compound 0.316 µM
[22] = second compound 0.000949 µM, first compound 1 µM
[23] = second compound 0.000949 µM, first compound 3.16 µM
[24] = second compound 0.000949 µM, first compound 10 µM
[25] = second compound 0.003 µM, first compound 0.0316 µM
[26] = second compound 0.003 µM, first compound 0.1 µM
[27] = second compound 0.003 µM, first compound 0.316 µM
[28] = second compound 0.003 µM, first compound 1 µM
[29] = second compound 0.003 µM, first compound 3.16 µM
[30] = second compound 0.003 µM, first compound 10 µM

Question: How did the IC50 (second compound 1 µM) turn out when Cn1ncnc1[C@H]1c2n[nH]c(=O)c3cc(F)cc(c23)N[C@@H]1c1ccc(F)cc1 + Cn1nnc2c(C(N)=O)ncn2c1=O was run?
Answer: < 9.49 nM

Question: What about the IC50 (second compound 3.16 µM) of the same compound?
Answer: < 9.49 nM

Question: And the IC50 (second compound 10 µM)?
Answer: < 9.49 nM

Question: What about the IC50 (second compound 31.6 µM) of the same compound?
Answer: < 9.49 nM

Question: And the IC50 (second compound 100 µM)?
Answer: < 9.49 nM

Question: What about the viability, T/C (second compound 1 µM, first compound 0.00949 µM) of the same compound?
Answer: 18.9%

Question: And the viability, T/C (second compound 1 µM, first compound 0.03 µM)?
Answer: 7.46%

Question: What about the viability, T/C (second compound 1 µM, first compound 0.0949 µM) of the same compound?
Answer: 7.66%

Question: What about the viability, T/C (second compound 1 µM, first compound 0.3 µM) of the same compound?
Answer: 7.07%

Question: And the viability, T/C (second compound 1 µM, first compound 0.949 µM)?
Answer: 6.65%

Question: And the viability, T/C (second compound 1 µM, first compound 3 µM)?
Answer: 7.52%

Question: What about the viability, T/C (second compound 3.16 µM, first compound 0.00949 µM) of the same compound?
Answer: 14.8%

Question: What about the viability, T/C (second compound 3.16 µM, first compound 0.03 µM) of the same compound?
Answer: 7.76%

Question: What about the viability, T/C (second compound 3.16 µM, first compound 0.0949 µM) of the same compound?
Answer: 7.04%

Question: What about the viability, T/C (second compound 3.16 µM, first compound 0.3 µM) of the same compound?
Answer: 7.11%

Question: What about the viability, T/C (second compound 3.16 µM, first compound 0.949 µM) of the same compound?
Answer: 7.41%

Question: And the viability, T/C (second compound 3.16 µM, first compound 3 µM)?
Answer: 8.3%

Question: What about the viability, T/C (second compound 10 µM, first compound 0.00949 µM) of the same compound?
Answer: 7.72%

Question: What about the viability, T/C (second compound 10 µM, first compound 0.03 µM) of the same compound?
Answer: 6.58%

Question: What about the viability, T/C (second compound 10 µM, first compound 0.0949 µM) of the same compound?
Answer: 7.6%

Question: What about the viability, T/C (second compound 10 µM, first compound 0.3 µM) of the same compound?
Answer: 6.29%

Question: What about the viability, T/C (second compound 10 µM, first compound 0.949 µM) of the same compound?
Answer: 30.5%

Question: What about the viability, T/C (second compound 10 µM, first compound 3 µM) of the same compound?
Answer: 8.25%

Question: What about the viability, T/C (second compound 31.6 µM, first compound 0.00949 µM) of the same compound?
Answer: 6.42%

Question: What about the viability, T/C (second compound 31.6 µM, first compound 0.03 µM) of the same compound?
Answer: 7.02%

Question: And the viability, T/C (second compound 31.6 µM, first compound 0.0949 µM)?
Answer: 7.1%

Question: What about the viability, T/C (second compound 31.6 µM, first compound 0.3 µM) of the same compound?
Answer: 7.06%

Question: And the viability, T/C (second compound 31.6 µM, first compound 0.949 µM)?
Answer: 7.26%

Question: And the viability, T/C (second compound 31.6 µM, first compound 3 µM)?
Answer: 9.15%

Question: And the viability, T/C (second compound 100 µM, first compound 0.00949 µM)?
Answer: 7.03%

Question: And the viability, T/C (second compound 100 µM, first compound 0.03 µM)?
Answer: 6.67%

Question: What about the viability, T/C (second compound 100 µM, first compound 0.0949 µM) of the same compound?
Answer: 6.67%

Question: And the viability, T/C (second compound 100 µM, first compound 0.3 µM)?
Answer: 7.34%

Question: What about the viability, T/C (second compound 100 µM, first compound 0.949 µM) of the same compound?
Answer: 7.7%

Question: What about the viability, T/C (second compound 100 µM, first compound 3 µM) of the same compound?
Answer: 9.27%

Question: Which results are given for Cc1cc(C)c(CNC(=O)c2cc(-c3ccc(CN4CCOCC4)cc3)cc3c2cnn3C2CCCC2)c(=O)[nH]1 + COc1cc2c(cc1O)CCNC21CSC2c3c(OC(C)=O)c(C)c4c(c3C(COC1=O)N1C(O)C3Cc5cc(C)c(OC)c(O)c5C(C21)N3C)OCO4?
Answer: IC50 (second compound 30 pM): > 10000 nM; IC50 (second compound 94.9 pM): < 31.6 nM; IC50 (second compound 0.0003 µM): < 31.6 nM; IC50 (second compound 0.000949 µM): < 31.6 nM; IC50 (second compound 0.003 µM): < 31.6 nM; viability, T/C [1]: 90.3%; viability, T/C [2]: 100%; viability, T/C [3]: 92.1%; viability, T/C [4]: 78.7%; viability, T/C [5]: 83.1%; viability, T/C [6]: 56.2%; viability, T/C [7]: 24%; viability, T/C [8]: 26.2%; viability, T/C [9]: 37.6%; viability, T/C [10]: 25.5%; viability, T/C [11]: 40.4%; viability, T/C [12]: 32.2%; viability, T/C [13]: 6.57%; viability, T/C [14]: 8.67%; viability, T/C [15]: 7.48%; viability, T/C [16]: 8.65%; viability, T/C [17]: 11.9%; viability, T/C [18]: 6.02%; viability, T/C [19]: 6.46%; viability, T/C [20]: 7.33%; viability, T/C [21]: 6.11%; viability, T/C [22]: 6.61%; viability, T/C [23]: 7.09%; viability, T/C [24]: 4.83%; viability, T/C [25]: 0.34%; viability, T/C [26]: 0.8%; viability, T/C [27]: 0.7%; viability, T/C [28]: 1.08%; viability, T/C [29]: 0.44%; viability, T/C [30]: 0.8%

Question: CC(C)n1c(=O)n(C)c2cnc3cc(F)c(-c4ccc(OCCCN5CCCCC5)nc4)cc3c21 + COc1cc2c(cc1O)CCNC21CSC2c3c(OC(C)=O)c(C)c4c(c3C(COC1=O)N1C(O)C3Cc5cc(C)c(OC)c(O)c5C(C21)N3C)OCO4 was tested. Which IC50 (second compound 30 pM) did it give?
Answer: > 10000 nM

Question: What about the IC50 (second compound 94.9 pM) of the same compound?
Answer: < 31.6 nM

Question: What about the IC50 (second compound 0.0003 µM) of the same compound?
Answer: < 31.6 nM

Question: What about the IC50 (second compound 0.000949 µM) of the same compound?
Answer: < 31.6 nM

Question: And the IC50 (second compound 0.003 µM)?
Answer: < 31.6 nM

Question: And the viability, T/C [1]?
Answer: 90.9%

Question: And the viability, T/C [2]?
Answer: 86.2%

Question: What about the viability, T/C [3] of the same compound?
Answer: 85.7%

Question: What about the viability, T/C [4] of the same compound?
Answer: 71.2%

Question: And the viability, T/C [5]?
Answer: 74.3%

Question: What about the viability, T/C [6] of the same compound?
Answer: 98.8%

Question: What about the viability, T/C [7] of the same compound?
Answer: 40.8%

Question: And the viability, T/C [8]?
Answer: 60.5%

Question: What about the viability, T/C [9] of the same compound?
Answer: 45.5%

Question: And the viability, T/C [10]?
Answer: 47.9%

Question: And the viability, T/C [11]?
Answer: 36.5%

Question: What about the viability, T/C [12] of the same compound?
Answer: 43.7%

Question: What about the viability, T/C [13] of the same compound?
Answer: 30.1%

Question: And the viability, T/C [14]?
Answer: 5.76%

Question: And the viability, T/C [15]?
Answer: 27.8%

Question: And the viability, T/C [16]?
Answer: 8.34%

Question: And the viability, T/C [17]?
Answer: 8.82%

Question: What about the viability, T/C [18] of the same compound?
Answer: 5.34%

Question: What about the viability, T/C [19] of the same compound?
Answer: 6.42%

Question: What about the viability, T/C [20] of the same compound?
Answer: 7.84%

Question: What about the viability, T/C [21] of the same compound?
Answer: 6.99%

Question: And the viability, T/C [22]?
Answer: 6.68%

Question: And the viability, T/C [23]?
Answer: 5.62%

Question: And the viability, T/C [24]?
Answer: 4.34%

Question: What about the viability, T/C [25] of the same compound?
Answer: 0.61%

Question: And the viability, T/C [26]?
Answer: 1.06%

Question: And the viability, T/C [27]?
Answer: 0.76%

Question: And the viability, T/C [28]?
Answer: 0.52%

Question: And the viability, T/C [29]?
Answer: 0.99%

Question: What about the viability, T/C [30] of the same compound?
Answer: 0.68%

Source: PubChem BioAssay AID1845212 (Molecular Pharmacology Branch, DTP, NCI, 2023)
